These results are taken from US4758551A (priority 1986, dated 1988).

The test system of series [1] is Male Swiss Webster mice. Nature of the series: Induction of glutathionuria by gamma-glutamyl compounds in mice (urinary glutathione). The format is in vivo. The note with it: for Urinary GSH: subcutaneous, 200 mM neutral solution, dose 4 mM per kilogram of body weight, urine collected for 1 hour. As for the experimental part:
Male Swiss Webster mice (20-27 g) were obtained from Taconic Farms (Germantown, N.Y.) and Hilltop Lab Animals (Scottsdale, Pa.).
(§1) The mice were fed ad libitum. Their urinary bladders were emptied by gentle abdominal pressure prior to subcutaneous injection of the gamma-glutamyl amino acids and urine was collected at 15 minute intervals for 1 hour in a tube containing 5 μl of 50% (w/v) 5-sulfosalicyclic acid. Elevated plasma glutathione levels were occasionally found after moderate abdominal pressure was applied to mice. For this reason, studies of urinary and plasma glutathione levels were carried out on different groups of mice.
(§2) Plasma, kidneys and livers were obtained and processed by well known means (see Anderson, M. E. et al, J. Biol. Chem. 255:9530-9533 (1980) and Anderson, M. E. et al, Methods Enzymol. 113:548-555 (1986)) and the concentration of glutathione therein was determined by the GSSG reductase-DTNB recycling assay (see Anderson, M. E. et al, Methods Enzymol. 113:548-555 (1986), Tietze, F., Analytical Biochem. 27:502-522 (1969) and Owens, C. et al, Biochem. J. 94:705-711 (1965)).
The urine samples were treated with 5mM dithiothreitol (pH 7.0) for 1 hour followed by derivatization with 2-vinylpyridine (see Griffith, O. W., Analytical Biochem. 106:207-212 (1980)). The derivatized samples were chromatographed on the amino acid analyzer using lithium citrate buffers (see Benson, J. V. et al, Anal. Biochem. 18:228-240 (1967)). The elution times for the vinylpyridine derivatives of gamma-glutamyl glutathione, gamma-glutamylcysteine, glutathione, cysteinylglycine and cysteine were 120, 163, 165, 220 and 235 minutes, respectively.
*The mice were injected subcutaneously with a 200 mM neutral solution of
the indicated amino acid (dose, 4 mM per kilogram of body weight) or with
an equivalent volume of saline. Urine was collected for 1 hour.

Series [2] deals with T1, purified rat kidney gamma-glutamyl transpeptidase (Rattus norvegicus, UniProt P07314).
T1 construct: Highly purified rate kidney gamma-glutamyl transpeptidase was prepared by well known means; from tissue; host or cells: rat kidney
The note with it: free amino acids (Tate 1974); cited from earlier work.

Series [3] relates to Male Swiss Webster mice. The experiment in a line: Glutathione levels of kidney, liver and blood plasma of mice after administration. Format: in vivo. Particulars: experimental period 1 hour. As for the experimental part: as §1, §2
Series [4] relates to Male Swiss Webster mice. The note with it: cited from earlier work.
Series [5] has as its system Male Swiss Webster mice. The note with it: similar protocol (Griffith 1979); cited from earlier work.
In series [6] the target is T1, purified rat kidney gamma-glutamyl transpeptidase. Nature of the series: Gamma-glutamyl transpeptidase activity assay with L-gamma-glutamyl-p-nitroanilide (apparent Khi, Dixon plot). Format: biochemical. As for the experimental part: Highly purified rate kidney gamma-glutamyl transpeptidase was prepared by well known means (see Tate, S. S. et al, Methods Enzymol. 113:400-419 (1986)). Bovine and porcine gamma-glutamyl transpeptidase can be obtained from Sigma Chemical Co. (St. Louis, Mo.).
Gamma-glutamyl transpeptidase activity was assayed using L-gamma-glutamyl-p-nitroanilide and the rate of formation of p-nitroaniline at 405 nm at 37° C. was measured (see Orlowski, M. et al, Biochim. Biophys. Acta 73:679-681 (1973)). The 1 ml final volume enzyme reaction mixture employed contained 40 mM Tris-HCl (pH 7.5), 30 or 60 μM L-gamma-glutamyl-p-nitroanilide, 30 or 150 μM gamma-glutamyl amino acid and 0.115 units gamma-glutamyl transpeptidase. Two different concentrations of substrate were employed for kinetic analyses. The reaction was initiated by adding gamma-glutamyl transpeptidase. The absorbance scale was 0.02 or 0.05 to insure that initial rates were obtained. The apparent hydrolysis Ki (Khi) values were determined from a Dixon plot and normalized to the apparent Km value for 6 μM L-gamma-glutamyl-p-nitroanilide (see Thompson, G. A. et al, Biochem. Biophys, Res. Commun. 71:32-36 (1976)).
The values for the apparent Khi for a number of gamma-glutamyl amino acids using purified rat kidney gamma-glutamyl transpeptidase are shown in the Figure. […]

The subject of the next series is mice. Particulars: cited from earlier work.
Series [7] can be described thus: In vivo conversion of the administered gamma-glutamyl compound. From the text:
The values for the apparent Khi for a number of gamma-glutamyl amino acids using purified rat kidney gamma-glutamyl transpeptidase are shown in the Figure. These values were plotted against the urinary glutathione obtained in the in vivo studies and a fairly close correlation was found. That is, the apparent affinity of gamma-glutamyl transpeptidase or gamma-glutamyl amino acid substrates varies over about a 6-fold range. In contrast, the affinity for the corresponding free amino acids varies over a range of several hundred (see Tate, S. S. et al, J. Biol. Chem. 249:7593-7602 (1974)).

The mark [8] stands for this setting: mice, after administration of the hydrazide.

Numbered stars: 1 amine (or outer) side, 2 acyl side, 3 side chain; on linkers, the order of the positions; unused ones are H or OH. Peptide text beside a SMILES is read from it. γGlu = O=C(O)[C@H](CCC(=O)[*:2])N[*:1]

T1 sequence (P07314 1-379 limits assumed): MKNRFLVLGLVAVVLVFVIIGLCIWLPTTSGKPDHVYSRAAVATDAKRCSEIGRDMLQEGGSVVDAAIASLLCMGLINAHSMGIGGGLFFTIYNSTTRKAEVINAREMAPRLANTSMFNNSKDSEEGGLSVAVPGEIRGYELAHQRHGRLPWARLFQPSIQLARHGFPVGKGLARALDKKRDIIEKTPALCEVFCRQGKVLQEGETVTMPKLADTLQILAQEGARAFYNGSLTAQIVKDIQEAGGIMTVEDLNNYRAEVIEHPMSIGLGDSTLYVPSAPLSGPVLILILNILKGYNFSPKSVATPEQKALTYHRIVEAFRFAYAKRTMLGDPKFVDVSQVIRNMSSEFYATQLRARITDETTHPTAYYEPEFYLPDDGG
T1 sequence (P07314 380-568 limits assumed): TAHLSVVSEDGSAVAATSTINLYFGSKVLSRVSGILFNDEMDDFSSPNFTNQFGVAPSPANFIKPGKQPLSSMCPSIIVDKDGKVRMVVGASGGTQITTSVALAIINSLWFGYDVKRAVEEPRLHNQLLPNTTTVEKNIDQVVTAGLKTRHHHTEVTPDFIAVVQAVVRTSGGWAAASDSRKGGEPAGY

As for `N[C@@H](CCC(=O)N[C@@H](Cc1ccc(O)cc1)C(=O)O)C(=O)O` [L-Gamma-Glu-- L-Tyr, L-Gamma-Glu-L-Tyr], the “Urinary GSH” value with Male Swiss Webster mice [1] is 3.19 ± 0.80 mM. With `CC(C)[C@H](NC(=O)CC[C@H](N)C(=O)O)C(=O)O` [L-Gamma-Glu-- L-Val, L-Gamma-Glu-L-Val], the “Urinary GSH” value in the series on Male Swiss Webster mice [1] is 0.49 ± 0.25 mM. For the compound `CSCC[C@H](NC(=O)CC[C@H](N)C(=O)O)C(=O)O` [L-Gamma-Glu-- L-Met, L-Gamma-Glu-L-Met], in the series on Male Swiss Webster mice [1], the “Urinary GSH” value turned out to be 8.54 ± 0.99 mM.

`N[C@@H](CCC(=O)NCC(=O)O)C(=O)O` [L-Gamma-Glu-- Gly, L-Gamma-Glu-Gly]: the “Urinary GSH” value with Male Swiss Webster mice [1] worked out at 2.67 ± 0.40 mM. Regarding `CC(C)[C@H](NC(=O)[C@@H](N)CCC(=O)O)C(=O)O` [L-glu-L-val, reference compound] (H-Glu-Val-OH), the “Urinary GSH” value with Male Swiss Webster mice [1] is < 0.03 mM.

With `N[C@@H](CCC(=O)O)C(=O)N[C@@H](Cc1ccc(O)cc1)C(=O)O` [L-glu-L-tyr, reference compound] (H-Glu-Tyr-OH), the “Urinary GSH” value with Male Swiss Webster mice [1] is recorded as < 0.03 mM. For `CC[C@H](C)[C@H](NC(=O)CC[C@H](N)C(=O)O)C(=O)O` [L-Gamma-Glu-- L-Ile, L-Gamma-Glu-L-Ile], in the series with Male Swiss Webster mice [1], the “Urinary GSH” value is 1.00 ± 0.10 mM. On the same count and under the same terms, as for `CSC[C@H](NC(=O)CC[C@H](N)C(=O)O)C(=O)NCC(=O)O` [S--Methyl glutathione], the figure is 5.21 ± 1.30 mM; as for `NC(=O)CC[C@H](NC(=O)CC[C@H](N)C(=O)O)C(=O)O` [L-Gamma-Glu-- L-Gln, L-Gamma-Glu-L-Gln], 1.17 ± 0.55 mM; as for `N[C@@H](CCCCNC(=O)CC[C@H](N)C(=O)O)C(=O)O` [L-Gamma-- ε-L-Lys, L-Gamma-Glu-ε-L-Lys], 0.77 ± 0.17 mM. Regarding `CC(C)[C@H](N)C(=O)O` [valine], the “acceptor substrate of gamma-glutamyl transpeptidase” value in series [2] was “extremely poor acceptor substrates”. Regarding `NCCCC[C@H](NC(=O)[C@@H](N)CCC(=O)O)C(=O)O` [L-glu-L-(α )-lys, reference compound] (H-Glu-Lys-OH), the “Urinary GSH” value in the series on Male Swiss Webster mice [1] is on record as < 0.03 mM. Consider `N[C@@H](CCC(=O)N[C@@H](CSSC[C@H](NC(=O)CC[C@H](N)C(=O)O)C(=O)O)C(=O)O)C(=O)O` [L-Gamma-Glu-- L-(Cys)2, L-Gamma-Glu-L-(Cys)2], for which the “Urinary GSH” value with Male Swiss Webster mice [1] is 2.63 ± 0.33 mM. `N[C@@H](CCC(=O)N[C@@H](CCC(=O)O)C(=O)O)C(=O)O` [L-Gamma-Glu-- L-Glu, L-Gamma-Glu-L-Glu]: the “Urinary GSH” value in the series on Male Swiss Webster mice [1] is 5.28 ± 1.05 mM. As to `N[C@@H](CCC(=O)N[C@@H](CSSC[C@H](NC(=O)CC[C@H](N)C(=O)O)C(=O)O)C(=O)O)C(=O)O` [(L-Gamma-Glu-- L-Cys)2, (L-gamma-Glu-L-Cys)2], the “Urinary GSH” value in the series with Male Swiss Webster mice [1] is listed as 5.77 ± 1.05 mM; in the series with Male Swiss Webster mice [1] (listed as gamma-glutamylcysteine disulfide) it was “about 6 mM”. Regarding `N[C@@H](CCC(=O)N[C@@H](CC(=O)O)C(=O)O)C(=O)O` [L-Gamma-Glu-- L-Asp, L-Gamma-Glu-L-Asp], the “Urinary GSH” value in the series with Male Swiss Webster mice [1] came out at 0.26 ± 0.10 mM. As to `N[C@@H](CCC(=O)N[C@@H](CS)C(=O)O)C(=O)O` [gamma-glutamylcysteine], in the series with Male Swiss Webster mice [3], the “effect on liver glutathione levels” value was “does not affect”. The “effect on kidney glutathione levels” value in the series with Male Swiss Webster mice [4] (Anderson 1983) is “increases”. Regarding `CSCC[C@H](NC(=O)CC[C@@H](N)C(=O)O)C(=O)O` [D-Gamma-Glu-- L-Met, D-Gamma-Glu-L-Met], the “Urinary GSH” value in the series on Male Swiss Webster mice [1] is on record as 0.18 ± 0.05 mM. Take `NC(CCC(=O)NNc1ccccc1C(=O)O)C(=O)O` [L-gamma-glutamyl-(o-carboxy)phenylhydrazide]: the “glutathione found in the urine” value in the series on Male Swiss Webster mice [5] was 3.6 to 5.6 mM. Also, the “plasma glutathione levels” value in the series on Male Swiss Webster mice [4] (Griffith 1979) is “marked increases”. Further, in the series on Male Swiss Webster mice [4] (setting [8]), the “decrease in kidney glutathione levels” value is listed as ~30% and the “decrease in liver glutathione levels” value is listed as ~13%. For `NC(=O)CC[C@H](N)C(=O)O` [L-glutamine, L-(and D-)glutamine, reference compound], the “affinity for / interaction with gamma-glutamyl transpeptidase” value in series [6] is given as “very poor gamma-glutamyl substrate”. For the same compound, in the series with Male Swiss Webster mice [1], the “induction of glutathionuria” value was “ineffective” and the “Urinary GSH” value is on record as < 0.03 mM.

In the case of `N[C@@H](CCC(=O)NCC(=O)NCC(=O)O)C(=O)O` [L-Gamma-Glu-- Gly--Gly, L-Gamma-Glu-Gly-Gly] (γGlu-Gly-Gly-OH), in the series with Male Swiss Webster mice [1], the “gamma-glutamyl glutathione in the urine” value is listed as “significant amounts” and the “Urinary GSH” value came out at 3.29 ± 1.16 mM. Besides, in the series with Male Swiss Webster mice [1] (vinylpyridine derivative, amino acid analyzer), the “urinary gamma-glutamyl cysteine relative to urinary glutathione” value is reported as “about 10%”. `NCCCC[C@H](N)C(=O)O` [lysine]: the “acceptor substrate of gamma-glutamyl transpeptidase” value in series [2] is recorded as “extremely poor acceptor substrates”. With `CC[C@H](NC(=O)CC[C@H](N)C(=O)O)C(=O)O`, the “Urinary GSH” value with Male Swiss Webster mice [1] was determined as 1.52 ± 0.38 mM. Same read-out and setting: the result for `C[C@H](NC(=O)[C@@H](N)CCC(=O)O)C(=O)O` [L-glu-L-ala, reference compound] (H-Glu-Ala-OH) reads < 0.03 mM. Turning to `NNc1ccccc1C(=O)O` [o-carboxyphenylhydrazine], the fatal dose entry with mice is listed as “more than 2 mM per kilogram of body weight”. As to `N[C@@H](CSSC[C@H](N)C(=O)O)C(=O)O` [L-Cystine, reference compound], the “Urinary GSH” value in the series with Male Swiss Webster mice [1] is < 0.03 mM. For `C[C@H](NC(=O)CC[C@H](N)C(=O)O)C(=O)O` [L-Gamma-Glu-- L-Ala, L-Gamma-Glu-L-Ala], the “affinity for / interaction with gamma-glutamyl transpeptidase” value in series [6] is listed as “much higher affinity”. In addition, in the series on Male Swiss Webster mice [1], the “gamma-glutamyl glutathione in the urine” value is given as “significant amounts” and the “Urinary GSH” value is recorded as 5.69 ± 1.26 mM. Turning to `C[C@H](NC(=O)CC[C@H](NC(=O)CC[C@H](N)C(=O)O)C(=O)O)C(=O)O` [L-Gamma-Glu-- L-Gamma-Glu-- L-Ala, L-Gamma-Glu-L-Gamma-Glu-L-Ala], the “in vivo conversion” value in series [7] is “rapidly converted in vivo to gamma-glutamyl alanine”. Also, in the series on Male Swiss Webster mice [1], the “induction of glutathionuria” value is given as “induced glutathionuria” and the “Urinary GSH” value is 5.07 ± 0.73 mM. Regarding `CC(C)C[C@H](NC(=O)CC[C@H](N)C(=O)O)C(=O)O` [L-Gamma-Glu-- L-Leu, L-Gamma-Glu-L-Leu], the “Urinary GSH” value in the series with Male Swiss Webster mice [1] is recorded as 0.60 ± 0.07 mM.
